{"source": "BindingDB's records for doi:10.1016/s0960-894x(02)00790-4", "about": "(British Biotech Pharmaceuticals, 2002)", "assay_in_all_cases": "Compound was evaluated for inhibition of peptide deformylase, PDF.Ni of Escherichia coli", "key": {"[1]": {"target": "Peptide deformylase (Escherichia coli) (UniProt P0A6K3)", "sequence (P0A6K3 whole entry, looked up)": "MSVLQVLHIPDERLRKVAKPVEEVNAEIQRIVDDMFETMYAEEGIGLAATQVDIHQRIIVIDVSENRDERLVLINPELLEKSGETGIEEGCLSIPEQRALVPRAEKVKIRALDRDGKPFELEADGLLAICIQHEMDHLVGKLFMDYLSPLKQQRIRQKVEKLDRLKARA"}, "[2]": {"target": "Peptide deformylase (Escherichia coli) (UniProt P0A6K3)", "remark": "listed apart in the source"}, "[3]": {"target": "Peptide deformylase (Escherichia coli) (UniProt P0A6K3)", "remark": "listed apart in the source"}}, "note": "Where a name gives a salt, the structure may show the parent alone."}
{"smiles": "CCCCC(CS)C(=O)NC(CCCNC(=N)N)C(=O)OC", "note": "(stereo not given) [5-Guanidino-2-(2-mercaptomethyl-hexanoylamino)-pentanoic acid methyl ester; TFA]", "values": [{"measurement": "Ki", "setting": "[1]", "result": 2500, "unit": "nM"}]}
{"smiles": "CCCC[C@H](CC(=O)NO)C(=O)N[C@H](C(=O)N(C)C)C(C)(C)C", "note": "[(R)-2-Butyl-N*1*-((S)-1-dimethylcarbamoyl-2,2-dimethyl-propyl)-N*4*-hydroxy-succinamide]", "values": [{"measurement": "IC50", "setting": "[2]", "result": 1, "unit": "nM"}]}
{"smiles": "CCCCC(CC(=N)NO)C(=O)N[C@H](C(=O)N(C)C)C(C)(C)C", "note": "(stereo partly drawn) [(R)-2-(N-Hydroxycarbamimidoylmethyl)-hexanoic acid ((S)-1-dimethylcarbamoyl-2,2-dimethyl-propyl)-amide]", "values": [{"measurement": "IC50", "setting": "[2]", "result": "> 1000", "unit": "nM"}]}
{"smiles": "CCCCC(C[PH](=O)O)C(=O)N[C@H](C(=O)N(C)C)C(C)(C)C", "note": "(stereo partly drawn) [[2-((S)-1-Dimethylcarbamoyl-2,2-dimethyl-propylcarbamoyl)-hexyl]-phosphinic acid]", "values": [{"measurement": "IC50", "setting": "[2]", "result": "> 1000", "unit": "nM"}]}
{"smiles": "CCCC[C@H](CN(O)C(N)=O)C(=O)N[C@H](C(=O)N(C)C)C(C)(C)C", "note": "[(2R)-2-{[(aminocarbonyl)(hydroxy)amino]methyl}-N-{(1S)-1-[(dimethylamino)carbonyl]-(2,2-dimethyl)-propyl}hexanamide]", "values": [{"measurement": "IC50", "setting": "[2]", "result": "> 1000", "unit": "nM"}]}
{"smiles": "CCCC[C@H](NCC(=O)O)C(=O)N[C@H](C(=O)N(C)C)C(C)(C)C", "note": "[[(S)-1-((S)-1-Dimethylcarbamoyl-2,2-dimethyl-propylcarbamoyl)-pentylamino]-acetic acid]", "values": [{"measurement": "IC50", "setting": "[2]", "result": "> 1000", "unit": "nM"}]}
{"smiles": "CCCC[C@H](CC(=O)NN)C(=O)N[C@H](C(=O)N(C)C)C(C)(C)C", "note": "[(R)-2-Hydrazinocarbonylmethyl-hexanoic acid ((S)-1-dimethylcarbamoyl-2,2-dimethyl-propyl)-amide]", "values": [{"measurement": "IC50", "setting": "[2]", "result": 200, "unit": "nM"}]}
{"smiles": "CCCC[C@H](CS)C(=O)N[C@@H](CCCCN)C(=O)Nc1ccc([N+](=O)[O-])cc1", "note": "[(S)-2-Mercaptomethyl-hexanoic acid [(S)-5-amino-1-(4-nitro-phenylcarbamoyl)-pentyl]-amide]", "values": [{"measurement": "Ki", "setting": "[3]", "result": 19, "unit": "nM"}]}
{"smiles": "CCCC[C@H](CNC=O)C(=O)N[C@H](C(=O)N(C)C)C(C)(C)C", "note": "[(R)-2-Formylaminomethyl-hexanoic acid ((S)-1-dimethylcarbamoyl-2,2-dimethyl-propyl)-amide]", "values": [{"measurement": "IC50", "setting": "[2]", "result": "> 1000", "unit": "nM"}]}
{"smiles": "CCCCC(CP(=O)(O)O)C(=O)N[C@H](C(=O)N(C)C)C(C)(C)C", "note": "(stereo partly drawn) [[2-((S)-1-Dimethylcarbamoyl-2,2-dimethyl-propylcarbamoyl)-hexyl]-phosphonic acid]", "values": [{"measurement": "IC50", "setting": "[2]", "result": "> 1000", "unit": "nM"}]}
